{"source": "patent US20040191287A1", "about": "“Fumigation process for stored food grains” (priority 2003, published 2004)", "key": {"Tribolium castaneum": {"tested_on": "Tribolium castaneum", "test": "whole plant or invertebrate", "details": "Tribolium castaneum, read-out: Mortality (%) (Mean ± SD)", "protocol": "(§1) Cryptolestes sp. was reared on wheat feed. S. oryzae, Cryptolestes sp. and T. castaneum cultures were maintained at 25±1° C. and 70% RH whereas R. dominica cultures were maintained at 30±1° C. and 70% RH. From the established cultures, 2-week-old adults were taken and counted into 10 cm×2.3 cm size test tubes at 50 per replicate. The mouth of the tube was closed with a cloth piece held by small rubber ring. The insects were exposed to a range of doses (10 to 100 mg/litre) of esters for 24 hours in 0.85-liter desicators at the laboratory temperature of 26±2° C. Pure grade esters including allyl acetate, butyl acetate, ethyl acetoacetate, isopropyl acetate and propyl acetate were procured from Merck India Ltd. In each desiccator a 9 cm diameter Whatman No. 1 filter circle was placed; the filter circle acted as evaporating surface for the injected liquids (esters). Required quantity of the ester was drawn from the bottles using 10, 25 or 50 micro litre liquid syringe. There were 6 replicates for each dose with equal number of replicates for untreated control. The exposure period in all cases was 24 hours. […] Insect mortality was assessed after 14 days. Corrected mortality was arrived at based on Abbott's formula (1925)."}, "Sitophilus oryzae": {"tested_on": "Sitophilus oryzae", "test": "whole plant or invertebrate", "details": "Sitophilus oryzae, read-out: Mortality (%) (Mean ± SD)", "protocol": "as §1"}, "Rhyzopertha dominica": {"tested_on": "Rhyzopertha dominica", "test": "whole plant or invertebrate", "details": "Rhyzopertha dominica, read-out: Mortality (%) (Mean ± SD)", "protocol": "as §1"}, "[1]": {"details": "cited from earlier work"}, "human beings": {"tested_on": "human beings", "details": "cited from earlier work"}}, "data": [{"smiles": "CCCOC(C)=O", "note": "[Propyl acetate, propyl acetate]", "values": [{"measurement": "mortality at 10 µg/mL", "setting": "Tribolium castaneum", "result": 0.9, "unit": "%"}, {"measurement": "mortality at 20 µg/mL", "setting": "Tribolium castaneum", "result": 0.9, "unit": "%"}, {"measurement": "mortality at 30 µg/mL", "setting": "Tribolium castaneum", "result": "12.6 ± 21.2", "unit": "%"}, {"measurement": "mortality at 50 µg/mL", "setting": "Tribolium castaneum", "result": "83.2 ± 26.3", "unit": "%"}, {"measurement": "mortality at 100 µg/mL", "setting": "Tribolium castaneum", "result": 100, "unit": "%"}, {"measurement": "mortality at 10 µg/mL", "setting": "Sitophilus oryzae", "result": "2.4 ± 3.8", "unit": "%"}, {"measurement": "mortality at 20 µg/mL", "setting": "Sitophilus oryzae", "result": "0.5 ± 1.3", "unit": "%"}, {"measurement": "mortality at 30 µg/mL", "setting": "Sitophilus oryzae", "result": "14.2 ± 8.1", "unit": "%"}, {"measurement": "mortality at 50 µg/mL", "setting": "Sitophilus oryzae", "result": "74.3 ± 20.2", "unit": "%"}, {"measurement": "mortality at 100 µg/mL", "setting": "Sitophilus oryzae", "result": 100, "unit": "%"}, {"measurement": "mortality at 10 µg/mL", "setting": "Rhyzopertha dominica", "result": "2 ± 4", "unit": "%"}, {"measurement": "mortality at 20 µg/mL", "setting": "Rhyzopertha dominica", "result": "7.3 ± 10", "unit": "%"}, {"measurement": "mortality at 30 µg/mL", "setting": "Rhyzopertha dominica", "result": "5.3 ± 10.6", "unit": "%"}, {"measurement": "mortality at 50 µg/mL", "setting": "Rhyzopertha dominica", "result": "65.4 ± 40", "unit": "%"}, {"measurement": "mortality at 100 µg/mL", "setting": "Rhyzopertha dominica", "result": 100, "unit": "%"}]}, {"smiles": "CCCCOC(C)=O", "note": "[Butyl acetate, butyl acetate]", "values": [{"measurement": "mortality at 10 µg/mL", "setting": "Tribolium castaneum", "result": "2 ± 2.6", "unit": "%"}, {"measurement": "mortality at 20 µg/mL", "setting": "Tribolium castaneum", "result": "2.1 ± 1.1", "unit": "%"}, {"measurement": "mortality at 30 µg/mL", "setting": "Tribolium castaneum", "result": "0.6 ± 1.1", "unit": "%"}, {"measurement": "mortality at 50 µg/mL", "setting": "Tribolium castaneum", "result": "13.9 ± 0.8", "unit": "%"}, {"measurement": "mortality at 100 µg/mL", "setting": "Tribolium castaneum", "result": "96.2 ± 0.8", "unit": "%"}, {"measurement": "mortality at 10 µg/mL", "setting": "Sitophilus oryzae", "result": "8.3 ± 12.3", "unit": "%"}, {"measurement": "mortality at 20 µg/mL", "setting": "Sitophilus oryzae", "result": "1.7 ± 2.4", "unit": "%"}, {"measurement": "mortality at 30 µg/mL", "setting": "Sitophilus oryzae", "result": "3.2 ± 4.5", "unit": "%"}, {"measurement": "mortality at 50 µg/mL", "setting": "Sitophilus oryzae", "result": "67.3 ± 7.7", "unit": "%"}, {"measurement": "mortality at 100 µg/mL", "setting": "Sitophilus oryzae", "result": 100, "unit": "%"}, {"measurement": "mortality at 10 µg/mL", "setting": "Rhyzopertha dominica", "result": "1.6 ± 3.5", "unit": "%"}, {"measurement": "mortality at 20 µg/mL", "setting": "Rhyzopertha dominica", "result": 0, "unit": "%"}, {"measurement": "mortality at 30 µg/mL", "setting": "Rhyzopertha dominica", "result": "0.2 ± 0.7", "unit": "%"}, {"measurement": "mortality at 50 µg/mL", "setting": "Rhyzopertha dominica", "result": "20.9 ± 26.8", "unit": "%"}, {"measurement": "mortality at 100 µg/mL", "setting": "Rhyzopertha dominica", "result": 100, "unit": "%"}]}, {"smiles": "O=S(=O)(F)F", "note": "[sulfuryl fluoride, reference compound]", "values": [{"measurement": "vapour pressure", "setting": "[1]; at 25° C.", "result": "13,442 mm of Hg"}]}, {"smiles": "N#CC#N", "note": "[cyanogen, reference compound]", "values": [{"measurement": "toxicity to human beings", "setting": "human beings", "result": "highly toxic"}, {"measurement": "Solubility in water", "setting": "[1]", "result": "highly water-soluble"}]}, {"smiles": "CC(=O)OC(C)C", "note": "[Isopropyl acetate, isopropyl acetate]", "values": [{"measurement": "mortality at 10 µg/mL", "setting": "Tribolium castaneum", "result": "0.3 ± 0.6", "unit": "%"}, {"measurement": "mortality at 20 µg/mL", "setting": "Tribolium castaneum", "result": "1.3 ± 1.7", "unit": "%"}, {"measurement": "mortality at 30 µg/mL", "setting": "Tribolium castaneum", "result": "32.7 ± 44.1", "unit": "%"}, {"measurement": "mortality at 50 µg/mL", "setting": "Tribolium castaneum", "result": "66.5 ± 27.7", "unit": "%"}, {"measurement": "mortality at 100 µg/mL", "setting": "Tribolium castaneum", "result": 100, "unit": "%"}, {"measurement": "mortality at 10 µg/mL", "setting": "Sitophilus oryzae", "result": "5.5 ± 6.9", "unit": "%"}, {"measurement": "mortality at 20 µg/mL", "setting": "Sitophilus oryzae", "result": "2.3 ± 5.6", "unit": "%"}, {"measurement": "mortality at 30 µg/mL", "setting": "Sitophilus oryzae", "result": "3.7 ± 7.56", "unit": "%"}, {"measurement": "mortality at 50 µg/mL", "setting": "Sitophilus oryzae", "result": "47.1 ± 31.2", "unit": "%"}, {"measurement": "mortality at 100 µg/mL", "setting": "Sitophilus oryzae", "result": 100, "unit": "%"}, {"measurement": "mortality at 10 µg/mL", "setting": "Rhyzopertha dominica", "result": "4.4 ± 6.9", "unit": "%"}, {"measurement": "mortality at 20 µg/mL", "setting": "Rhyzopertha dominica", "result": "8.9 ± 10.7", "unit": "%"}, {"measurement": "mortality at 30 µg/mL", "setting": "Rhyzopertha dominica", "result": "6.1 ± 6.7", "unit": "%"}, {"measurement": "mortality at 50 µg/mL", "setting": "Rhyzopertha dominica", "result": "39.2 ± 8.2", "unit": "%"}, {"measurement": "mortality at 100 µg/mL", "setting": "Rhyzopertha dominica", "result": 100, "unit": "%"}]}, {"smiles": "CCOC(=O)CC(C)=O", "note": "[Ethyl acetoacetate, ethyl acetoacetate]", "values": [{"measurement": "mortality at 10 µg/mL", "setting": "Tribolium castaneum", "result": "0.6 ± 2.6", "unit": "%"}, {"measurement": "mortality at 20 µg/mL", "setting": "Tribolium castaneum", "result": "0.8 ± 1.1", "unit": "%"}, {"measurement": "mortality at 30 µg/mL", "setting": "Tribolium castaneum", "result": "0.3 ± 1.1", "unit": "%"}, {"measurement": "mortality at 50 µg/mL", "setting": "Tribolium castaneum", "result": "0.7 ± 0.8", "unit": "%"}, {"measurement": "mortality at 100 µg/mL", "setting": "Tribolium castaneum", "result": "1.3 ± 0.8", "unit": "%"}, {"measurement": "mortality at 10 µg/mL", "setting": "Sitophilus oryzae", "result": "3.1 ± 6.9", "unit": "%"}, {"measurement": "mortality at 20 µg/mL", "setting": "Sitophilus oryzae", "result": "4.7 ± 7.1", "unit": "%"}, {"measurement": "mortality at 30 µg/mL", "setting": "Sitophilus oryzae", "result": "5.1 ± 5.7", "unit": "%"}, {"measurement": "mortality at 50 µg/mL", "setting": "Sitophilus oryzae", "result": "6.5 ± 5.5", "unit": "%"}, {"measurement": "mortality at 100 µg/mL", "setting": "Sitophilus oryzae", "result": "15.8 ± 14", "unit": "%"}, {"measurement": "mortality at 10 µg/mL", "setting": "Rhyzopertha dominica", "result": 0, "unit": "%"}, {"measurement": "mortality at 20 µg/mL", "setting": "Rhyzopertha dominica", "result": 0, "unit": "%"}, {"measurement": "mortality at 30 µg/mL", "setting": "Rhyzopertha dominica", "result": "5.7 ± 10.4", "unit": "%"}, {"measurement": "mortality at 50 µg/mL", "setting": "Rhyzopertha dominica", "result": "8.6 ± 17.1", "unit": "%"}, {"measurement": "mortality at 100 µg/mL", "setting": "Rhyzopertha dominica", "result": "0.4 ± 0.9", "unit": "%"}]}]}
